Experiments:
[1] = system: guinea pig platelet; assay: In vitro guinea pig platelet aggregation induced by ADP; assay type: cell-based; conditions: guinea pig platelets
[2] = system: Spontaneously hypertensive rats (SHR); assay: Antihypertensive activity on spontaneously hypertensive rats (SHR); assay type: in vivo, rat; conditions: for Mean arterial pressure % reduction: SHR
Source text: All the compounds of formula (I) have antihypertensive activity on Spontaneously hypertensive rats (SHR), as clearly shown by the results reported in the following Table III.

[3] = system: mouse; assay: Locomotor activity in the mouse; assay type: in vivo
[4] = system: rat seminal vesicle; assay: Adrenolytic activity in the rat seminal vesicle test in vitro
Source text: Most of the compounds of formula (I) have a marked adrenolytic activity in the rat seminal vesicle test in vitro.

[5] = system: reserpinized rat; assay: Antihyperprolactinemic activity in the reserpinized rat; assay type: in vivo; conditions: for Plasmatic prolactin % reduction: reserpinized rat
[6] = system: isolated uterus of female rat; assay: Antiserotonin activity in vitro on isolated uterus of female rat; conditions: for ED₅₀: antiserotonin activity, isolated uterus of female rat
Source text: All the compounds of the invention have a marked antiserotonin activity in vitro test on isolated uterus of female rat.

[7] = system: rat; assay: Stereotypy test in the rat; assay type: in vivo; conditions: dose 10 mg/kg i.p.
[8] = After 1 hour, dose 0.25 mg/kg os
[9] = After 2 hours, dose 0.50 mg/kg os

Row | Molecule | Platelet aggregation % reduction ([1]; Dose 40 mcg/ml) [%] | Mean arterial pressure % reduction ([2]; dose = 1 mg/kg i.p.) [%] | Mean arterial pressure % reduction ([2]; dose = 3 mg/kg i.p.) [%] | hypotensive / antihypertensive activity ([2]; result in words) | % inhibition ([3]; dose 20 mg/kg i.p.) [%] | ED₅₀ [4] [µg/mL] | Plasmatic prolactin % reduction [5, 8] [%] | Plasmatic prolactin % reduction [5, 9] [%] | antihyperprolactinemic activity ([5]; result in words) | ED₅₀ [6] [µg/mL] | antiserotonin activity ([6]; result in words) | Platelet aggregation % reduction ([1]; Dose 80 mcg/ml) [%] | % inhibition ([3]; dose 10 mg/kg i.p.) [%] | Mean score [7]
1 | CN(C[C@@H]1C=C2c3cccc4[nH]cc(c34)C[C@H]2N(C)C1)C1CC1 [P 1427, N-methyl-N-cyclopropyl-9,10-didehydro-6-methylergoline-8β-methanamine] | 25 | 35.6 | 32.4 | high | 92.7 | 0.70 | 67.2 | 86.6 | interesting | 0.004 | high | – | – | –
2 | α-Bromocryptine [reference compound] | – | – | – | – | – | – | 78.2 | 80.9 | – | 0.470 | – | 25 | 78.7 | 2.25

— patent EP0411494A2, “Ergoline derivatives having dopaminergic activity” (priority 1989, dated 1991)
